Series [1] can be described thus: Stability of the three analytes in rat plasma under various storage conditions. In kind it is in vitro ADME. Conditions: n = 6; for Stability (% RE) Post-Preparative: 12 h after sample preparation at 4 °C; for Stability (% RE) Short-Term / Stability (% RE) Three Freeze-Thaw: rat plasma; for Stability (% RE) Short-Term: 4 h at ambient temperature; for Stability (% RE) Three Freeze-Thaw: three freeze-thaw cycles at −20 °C. As to the method: The stability of rat plasma under different storage conditions was determined. […] All compounds maintained steady levels for […].
The stability of the three compounds in rat plasma, including freeze and thaw stability (three freeze-thaw cycles at −20 °C), long-term stability (storage for 2 weeks at −80 °C), room temperature stability (storage for 4 h at ambient temperature), and post-preparation stability (storage for 12 h after sample preparation at 4 °C), was tested at two QC levels with six replicates at each level. All stability testing QC samples were determined using the calibration curve of freshly prepared standard samples.

Test in series [2]: as above
In kind it is in vitro ADME. As to conditions: storage for 2 weeks at −80 °C (b26 says −20 °C), n = 6.

Series [3] in a line: Pharmacokinetic study in rats after single oral administration of ZGI, DGE, PA or S. officinalis extract (plasma, UHPLC-MS/MS). In kind it is in vivo, Sprague-Dawley rats. Conditions: for conversion in vivo after oral administration (in words): rats, oral administration of the monomer, from plasma levels of ZGI, DGE, PA. The text has this: The UHPLC–MS/MS method was successfully used in the pharmacokinetic studies of the three analytes after single dose administration of ZGI, DGE, PA, and S. officinalis extract in rats (0.55 g/kg, equivalent to 0.03, 0.013, and 0.007 g/kg of ZGI, DGE, and PA, respectively). Based on the body surface area calculations of people and the animals and equivalent dose conversion calculations, the dosage of the rats was 0.55 g/kg.
The experimental protocol was permitted by the Animal Ethics Committee of Harbin Medical University (Approval Code: AECHMU20150021, Approval Date: 3 June 2015) and conformed to the principles for the Care and Use of Laboratory Animals. Twenty-four male Sprague-Dawley rats (weighting 200 ± 20 g), which were provided by the Laboratory Animal Center at Harbin Medical University (Harbin, China), were used for the pharmacokinetic study. The animals were maintained in a SPF-grade room on a 12 h light/dark cycle with a controlled temperature conditions (21 ± 2 °C) and relative humidity (50 ± 5%) before the experiment. During the adaptation process, all rats were provided with standard food and purified water each morning and evening. Each rat fasted for 12 h before giving the drug and was randomly divided into one of four groups (n = 6).
A single dose of the S. officinalis extract (0.55 g/kg, group I), ZGI (0.03 g/kg, group II), DGE ([…], group III), and PA (0.013 g/kg, group IV) was administrated to the rats. The S. officinalis extract was dissolved in water. A single dose of 0.55 g/kg of S. officinalis extract was administrated to the rats. Blood was obtained from the retinal venous plexus at 0, 0.083, 0.5, 1.0, 1.5, 2.0, 2.5, 3.0, 4.0, 6.0, 8.0, 12.0, and 24.0 h after dosing. The plasma was immediately separated by centrifugation at 8000 rpm for 4 min at −4 °C.
The maximum concentration (Cmax) and the time to attain it (Tmax) were observed directly from the measured data. The elimination rate constant (Ke) was calculated by linear regression of the terminal points in a semi-log plot of the plasma concentration against time. The area under plasma concentration–time curve (AUC0→t) to the last measurable plasma concentration (Ct) was estimated using the linear trapezoidal rule.
Calculate the amount of three compounds using linear regression from the standard curve. The pharmacokinetic parameters of the analytes were calculated with DAS 2.0 (Shanghai, China). All results were expressed as mean ± SD. The comparison of pharmacokinetic parameters was conducted using standard Student’s t-test. Differences between groups were assumed statistically significant for p values < 0.05.

[4] abbreviates: high QC (ZGI 2080, DGE 1840, PA 840.0 ng/mL).
Setting [5] is: low QC (ZGI 19.5, DGE 17.4, PA 7.8 ng/mL).

The values below come from publication PMC9458004, “Simultaneous Determination and Pharmacokinetics Study of Three Triterpenes from Sanguisorba officinalis L. in Rats by UHPLC–MS/MS” (Molecules, 2022).

SMILES strings stand for the structures.

As a reminder, the Cmax is the maximum level reached in the sampled fluid or tissue. What is called Tmax is the time from dosing to the highest level.

With `CC1CCC2(C(=O)OC3OC(CO)C(O)C(O)C3O)CCC3(C)C(=CCC4C5(C)CCC(O)C(C)(C)C5CCC43C)C2C1(C)O` [DGE, 3β,19α-dihydroxyurs-12-en-28-oic-acid 28-β-D-glucopyranosyl ester], in series [1] (setting [4]), the “Stability (% RE) Post-Preparative” value is listed as 7.7 % RE, the “Stability (% RE) Short-Term” value is recorded as 0.70 % RE and the “Stability (% RE) Three Freeze-Thaw” value is recorded as 3.5 % RE. Besides, in series [1] (setting [5]), the “Stability (% RE) Post-Preparative” value was 14 % RE, the “Stability (% RE) Short-Term” value is recorded as 8.4 % RE and the “Stability (% RE) Three Freeze-Thaw” value stood at 3.3 % RE. Further, the “Stability (% RE) Long-Term” value in series [2] (setting [4]) turned out to be 5.8 % RE. The “Stability (% RE) Long-Term” value in series [2] (setting [5]) is recorded as 9.6 % RE. The “conversion in vivo after oral administration (in words)” value (“conversion in vivo” below) in series [3] is “may be transformed into PA”.
As for `C[C@@H]1CC[C@]2(C(=O)O[C@@H]3O[C@H](CO)[C@@H](O)[C@H](O)[C@H]3O)CC[C@]3(C)C(=CC[C@@H]4[C@@]5(C)CC[C@H](O[C@@H]6OC[C@H](O)[C@H](O)[C@H]6O)C(C)(C)[C@@H]5CC[C@]43C)[C@@H]2[C@]1(C)O` [ZGI, Ziyuglycoside I], the figures for the “Stability (% RE) Post-Preparative” value in series [1] (setting [4]) and in series [1] (setting [5]) were 6.4 % RE and 9.2 % RE, respectively. Moreover, the “Stability (% RE) Short-Term” value in series [1] (setting [4]) came out at 2.4 % RE; in series [1] (setting [5]), 14 % RE. The “Stability (% RE) Three Freeze-Thaw” value in series [1] (setting [4]) amounted to 2.8 % RE; in series [1] (setting [5]), 6.2 % RE. Besides, the “Stability (% RE) Long-Term” value in series [2] (setting [4]) turned out to be 3.4 % RE; in series [2] (setting [5]), 15 % RE. This compound returned a Cmax in series [3] (male, Sprague-Dawley, analyte ZGI in rat plasma, single oral dose of the row's substance (S. officinalis extract 0.55 g/kg, ZGI 0.03 g/kg), n = 6, mean ± SD) of 678 ± 47 ng/mL. Also, the Tmax in series [3] (male, Sprague-Dawley, analyte ZGI in rat plasma, single oral dose of the row's substance (extract 0.55 g/kg, ZGI 0.03 g/kg), n = 6) was determined as 1.4 ± 0.2 h. Also, the half-life in series [3] (male, Sprague-Dawley, analyte ZGI in rat plasma, single oral dose of the row's substance (extract 0.55 g/kg, ZGI 0.03 g/kg), n = 6, read-out: t1/2 of ZGI (converted)) is 11 ± 1 h. Also, the “conversion in vivo” value in series [3] is “may be converted into DGE and PA”.
For `C[C@@H]1CC[C@]2(C(=O)O)CC[C@]3(C)C(=CC[C@@H]4[C@@]5(C)CC[C@H](O)C(C)(C)[C@@H]5CC[C@]43C)[C@@H]2[C@]1(C)O` [PA, pomolic acid], in series [1] (setting [4]), the “Stability (% RE) Post-Preparative” value was determined as 13 % RE, the “Stability (% RE) Short-Term” value was found to be 3.1 % RE and the “Stability (% RE) Three Freeze-Thaw” value was 5.2 % RE. In series [1] (setting [5]), the “Stability (% RE) Post-Preparative” value was determined as 7.1 % RE, the “Stability (% RE) Short-Term” value is −5.0 % RE and the “Stability (% RE) Three Freeze-Thaw” value is recorded as 12 % RE. The “Stability (% RE) Long-Term” value in series [2] (setting [4]) was found to be 7.6 % RE. The “Stability (% RE) Long-Term” value in series [2] (setting [5]) worked out at 13 % RE. Also, the “conversion in vivo” value in series [3] was “cannot convert into ZGI and DGE”.
